Assay results published in patent publication US10981911B2, “Imidazopyrrolopyridine as inhibitors of the JAK family of kinases” (Janssen Pharmaceutica NV, priority 2016, dated 2021).

Experiments:
Assay type in all cases: biochemical
[1] = target: JAK3-JH1JH2 (Homo sapiens (Human), UniProt P52333); assay: Enzymatic inhibition assay (RapidFire HTMS), JAK3; conditions: 150 μM ATP, 40 μM substrate
Excerpt: (§1) LC/MS grade Water and Acetonitrile (ACN), were purchased from HoneyWell, Burdick & Jackson (Muskegon, Mich., USA). Dimethylsulfoxide 99.8% (DMSO) and Trifluoroacetic Acid 99.5% (TFA) were purchased from EMD Chemical (Gibbstown, N.J., USA). Adenosine triphosphate (ATP), 4-Morpholinepropanesulfonic acid (MOPS), Magnesium chloride (MgCl2), ethylenediaminetetraacetic acid (EDTA), dithiothreitol (DTT), formic acid >95% (FA) and Tween-20 were purchased from Sigma (St Louis, Mo., USA). 384-well polypropylene plates, Cat #781280 were purchased from Greiner (Monroe, N.C.), RapidFire™ cartridge A C4 Column (Agilent Technologies, Santa Clara, Calif.).
(§2) The HTMS experiments were performed in positive ionization mode on a RapidFire 300 instrument (Agilent Technologies, Santa Clara, Calif.), coupled with an ABSiex QTrap 4000 system with an Electrospray Ionization source (RF-MS) (Concord, ON, Canada). […] The entire system was operated using the RapidFire software interfaced with Analyst software for the mass spectrometer.
(§3) 11-point dosing series were made for each compound by serially diluting 1:3 or 1:4 in DMSO, with point 12 being a DMSO control. From the serial dilution plates, sample was transferred to a 384 wells assay plate (#781280, Greiner, Monroe, N.C.) using Labcyte Echo (Sunnyvale, Calif.), or Biosero ATS (San Diego, Calif.). The compounds were tested in duplicate. Column 12 was used for positive controls, and column 24 contained negative controls with no enzyme added. A compound from our internal collection, with inhibitory activity for JAK isoforms, was used as a reference compound. […] The Tyk2 enzyme was pre-incubated with 2 mM ATP for 30 min prior to the reaction initiation. Immediately after the addition of the enzyme to the reaction mixture, the plate was centrifuged at 1000 rpm for 1 minute and incubated at 25° C. for 45 minutes for JAK 3 and 90 minutes for JAK1, JAK2 and Tyk2. The reaction was quenched by the addition of 20 μL of 0.5% TFA containing 0.15 μM of internal standard peptide using Multidrop Combi reagent dispenser (Thermo Scientific, Waltham, Mass.). […] After the quench, the assay plate was centrifuged at 3000 rpm for 3 minutes and sealed with pierceable aluminum foil (Cat #06644-001, Agilent) using a PlateLoc (Agilent Technologies, Santa Clara, Calif.). The plates then were transferred on to the RapidFire for the MS analysis. Compound inhibition was assessed by a decrease of the phosphorylated product levels in sample wells compared to the non-inhibited enzyme reaction.
(§4) The sample analysis on the RapidFire was performed using a mobile phase A consisting of Water/TFA/FA (100:0.01:0.1, v/v/v), a mobile phase B consisting of ACN/Water/TFA/FA (80:20:0.01:0.1, v/v/v). […] The samples were aspirated directly from the 384 assay plate and delivered onto RF-MS microscale solid-phase C4 extraction cartridge (Type A). The undesired component such as salt, cofactor, detergent and large protein were washed out and the retained analytes (substrate, product and IS) were coeluted directly onto the ABSiex Qtrap 4000 system.

[2] = target: Tyk2-JH1JH2 (Homo sapiens (Human), UniProt P29597, C1142A/C936A); assay: Enzymatic inhibition assay (RapidFire HTMS), Tyk2; conditions: 50 μM ATP, 200 μM substrate
Excerpt: as §1, §2
as §3, with “compound. The final concentration of DMSO was ≤0.25% in a 20 μL reaction.” for “compound.”
as §4

[3] = target: JAK1-JH1JH2 (Homo sapiens (Human), UniProt P23458); assay: Enzymatic inhibition assay (RapidFire HTMS), JAK1; conditions: 12.5 μM ATP, 200 μM substrate; read-out: JAK1-JH2JH1 IC50
Excerpt: as §1, §2
as §3, with “compound. The final concentration of DMSO was ≤0.25% in a 20 μL reaction.” for “compound.”
as §4

Chain of JAK1-JH1JH2 (P23458 574-1154): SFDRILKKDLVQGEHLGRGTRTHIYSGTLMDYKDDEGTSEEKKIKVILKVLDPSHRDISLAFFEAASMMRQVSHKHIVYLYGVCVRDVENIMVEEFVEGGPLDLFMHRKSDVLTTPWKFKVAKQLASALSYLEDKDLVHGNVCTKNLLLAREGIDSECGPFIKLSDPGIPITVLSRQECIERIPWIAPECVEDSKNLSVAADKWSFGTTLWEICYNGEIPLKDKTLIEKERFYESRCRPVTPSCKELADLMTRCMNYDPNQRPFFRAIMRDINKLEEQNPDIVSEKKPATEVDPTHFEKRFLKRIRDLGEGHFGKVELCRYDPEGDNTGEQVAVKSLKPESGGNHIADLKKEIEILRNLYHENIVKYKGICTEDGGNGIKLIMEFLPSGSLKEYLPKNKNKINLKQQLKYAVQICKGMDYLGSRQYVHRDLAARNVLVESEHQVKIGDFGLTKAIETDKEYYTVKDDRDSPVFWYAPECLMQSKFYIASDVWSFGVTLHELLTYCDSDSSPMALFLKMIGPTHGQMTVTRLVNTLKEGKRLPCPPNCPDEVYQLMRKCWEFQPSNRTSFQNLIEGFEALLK
Chain of Tyk2-JH1JH2 (P29597 580-1182 C936A/C1142A): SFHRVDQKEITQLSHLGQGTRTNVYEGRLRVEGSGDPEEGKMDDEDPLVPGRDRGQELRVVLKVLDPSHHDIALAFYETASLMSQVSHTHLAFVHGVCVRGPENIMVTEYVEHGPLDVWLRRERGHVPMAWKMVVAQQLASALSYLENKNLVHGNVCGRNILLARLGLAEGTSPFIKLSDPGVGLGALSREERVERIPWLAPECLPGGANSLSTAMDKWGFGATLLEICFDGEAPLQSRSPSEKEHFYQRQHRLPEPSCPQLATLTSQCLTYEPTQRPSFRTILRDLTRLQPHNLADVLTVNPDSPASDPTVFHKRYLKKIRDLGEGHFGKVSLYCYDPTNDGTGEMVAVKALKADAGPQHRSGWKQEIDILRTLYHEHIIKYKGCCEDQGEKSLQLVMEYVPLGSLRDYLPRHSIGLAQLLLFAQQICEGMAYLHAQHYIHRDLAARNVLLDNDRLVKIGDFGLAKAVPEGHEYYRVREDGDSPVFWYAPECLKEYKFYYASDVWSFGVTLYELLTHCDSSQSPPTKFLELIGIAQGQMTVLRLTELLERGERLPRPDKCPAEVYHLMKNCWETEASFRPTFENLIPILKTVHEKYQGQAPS
Chain of JAK3-JH1JH2 (P52333 512-1124): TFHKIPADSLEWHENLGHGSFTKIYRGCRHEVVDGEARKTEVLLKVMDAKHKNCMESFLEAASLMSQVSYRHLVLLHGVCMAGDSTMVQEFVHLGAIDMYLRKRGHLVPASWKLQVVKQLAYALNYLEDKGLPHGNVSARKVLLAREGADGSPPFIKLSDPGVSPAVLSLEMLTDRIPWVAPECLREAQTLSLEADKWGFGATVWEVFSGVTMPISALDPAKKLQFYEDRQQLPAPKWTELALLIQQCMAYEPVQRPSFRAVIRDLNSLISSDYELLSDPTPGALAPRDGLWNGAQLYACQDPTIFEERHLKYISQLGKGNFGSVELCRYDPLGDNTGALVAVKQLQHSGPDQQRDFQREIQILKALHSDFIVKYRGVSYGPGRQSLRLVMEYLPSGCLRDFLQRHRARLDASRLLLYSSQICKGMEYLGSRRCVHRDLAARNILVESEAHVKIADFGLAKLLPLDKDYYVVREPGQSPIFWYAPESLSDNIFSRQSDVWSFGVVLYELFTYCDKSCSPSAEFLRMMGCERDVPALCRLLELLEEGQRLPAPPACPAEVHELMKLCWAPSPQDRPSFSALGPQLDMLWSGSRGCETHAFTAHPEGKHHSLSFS

SMILES | IC50 [1] | IC50 [2] | IC50 [3]
N#CC[C@H]1CC[C@H](n2c(-c3cocn3)nc3cnc4[nH]ccc4c32)CC1 [Ex. 11, 2-((1r,4r)-4-(2-(Oxazol-4-yl)imidazo[4,5-d]pyrrolo[2,3-b]pyridin-1(6H)-yl)cyclohexyl)acetonitrile] | 33.5 nM | 1.2 nM | 0.1 nM
N#CC[C@H]1CC[C@H](n2c(-c3cn[nH]n3)nc3cnc4[nH]ccc4c32)CC1 [Ex. 16, 2-((1r,4r)-4-(2-(2H-1,2,3-Triazol-4-yl)imidazo[4,5-d]pyrrolo[2,3-b]pyridin-1(6H)-yl)cyclohexyl)acetonitrile] | 37.7 nM | 3.7 nM | 0.1 nM
N#CC[C@H]1CC[C@H](n2c(Cc3ccn[nH]3)nc3cnc4[nH]ccc4c32)CC1 [Ex. 25, 2-((1r,4r)-4-(2-((1H-Pyrazol-5-yl)methyl)imidazo[4,5-d]pyrrolo[2,3-b]pyridin-1(6H)-yl)cyclohexyl)acetonitrile] | 77.9 nM | 5.3 nM | 0.1 nM
N#CC[C@H]1CC[C@H](n2c(CNC(=O)Nc3ccccc3)nc3cnc4[nH]ccc4c32)CC1 [Ex. 70, 1-((1-((1r,4r)-4-(Cyanomethyl)cyclohexyl)-1,6-dihydroimidazo[4,5-d]pyrrolo[2,3-b]pyridin-2-yl)methyl)-3-phenylurea] | 108 nM | 9.4 nM | 0.4 nM
C[Si](C)(C)C1CCC(c2nc3cnc4[nH]ccc4c3n2[C@H]2CC[C@H](CC#N)CC2)CC1 (stereo partly drawn) [Ex. 100, 2-((1r,4r)-4-(2-(4-(Trimethylsilyl)cyclohexyl)imidazo[4,5-d]pyrrolo[2,3-b]pyridin-1(6H)-yl)cyclohexyl)acetonitrile] | > 6250 nM | 2280 nM | 72 nM
N#CC[C@H]1CC[C@H](n2c(CN/C(Cc3ccccc3)=N\O)nc3cnc4[nH]ccc4c32)CC1 [Ex. 103, (EZ)—N-((1-((1r,4r)-4-(Cyanomethyl)cyclohexyl)-1,6-dihydroimidazo[4,5-d]pyrrolo[2,3-b]pyridin-2-yl)methyl)-N-hydroxy-2-phenylacetimidamide] | 459 nM | 11.3 nM | 0.5 nM
N#CC[C@H]1CC[C@H](n2c(CC(=O)Nc3ccc(C(O)(C(F)(F)F)C(F)(F)F)cc3)nc3cnc4[nH]ccc4c32)CC1 [Ex. 104, 2-(1-((1r,4r)-4-(Cyanomethyl)cyclohexyl)-1,6-dihydroimidazo[4,5-d]pyrrolo[2,3-b]pyridin-2-yl)-N-(4-(1,1,1,3,3,3-hexafluoro-2-hydroxypropan-2-yl)phenyl)acetamide] | 298 nM | 12.6 nM | 0.5 nM
N#CC[C@H]1CC[C@H](n2c(-c3cn[nH]c3)nc3cnc4[nH]ccc4c32)CC1 [Ex. 123, 2-((1r,4r)-4-(2-(1H-pyrazol-4-yl)imidazo[4,5-d]pyrrolo[2,3-b]pyridin-1(6H)-yl)cyclohexyl)acetonitrile] | 146 nM | 11.6 nM | 0.7 nM

Further lines, results first:

IC50 [1] | IC50 [2] | IC50 [3] | SMILES
49.4 nM | 0.4 nM |  | N#CC[C@H]1CC[C@H](n2c(CC(=O)N3CCC(C(F)(F)F)CC3)nc3cnc4[nH]ccc4c32)CC1 [Ex. 6, 2-((1r,4r)-4-(2-(2-Oxo-2-(4-(trifluoromethyl)piperidin-1-yl)ethyl)imidazo[4,5-d]pyrrolo[2,3-b]pyridin-1(6H)-yl)cyclohexyl)acetonitrile]
54.5 nM |  | 0.1 nM | CC(C)(CO)CNC(=O)Cc1nc2cnc3[nH]ccc3c2n1[C@H]1CC[C@H](CC#N)CC1 [Ex. 15, 2-(1-((1r,4r)-4-(Cyanomethyl)cyclohexyl)-1,6-dihydroimidazo[4,5-d]pyrrolo[2,3-b]pyridin-2-yl)-N-(3-hydroxy-2,2-dimethylpropyl)acetamide]
55.1 nM | 3.5 nM | 0.1 nM | N#CC[C@H]1CC[C@H](n2c(CC(=O)NCC34CC5CC(CC(O)(C5)C3)C4)nc3cnc4[nH]ccc4c32)CC1 [Ex. 21, 2-(1-((1r,4r)-4-(Cyanomethyl)cyclohexyl)-1,6-dihydroimidazo[4,5-d]pyrrolo[2,3-b]pyridin-2-yl)-N-(((1S,3R,5R,7S)-3-hydroxyadamantan-1-yl)methyl)acetamide]
193 nM | 11.2 nM | 0.2 nM | N#CC[C@H]1CC[C@H](n2c(CC(=O)NCc3ccccc3)nc3cnc4[nH]ccc4c32)CC1 [Ex. 48, N-Benzyl-2-(1-((1r,4r)-4-(cyanomethyl)cyclohexyl)-1,6-dihydroimidazo[4,5-d]pyrrolo[2,3-b]pyridin-2-yl)acetamide]
57.5 nM | 4.4 nM | 0.2 nM | N#CC[C@H]1CC[C@H](n2c(CC(=O)NC34CC5CC(CC(O)(C5)C3)C4)nc3cnc4[nH]ccc4c32)CC1 [Ex. 52, 2-(1-((1r,4r)-4-(Cyanomethyl)cyclohexyl)-1,6-dihydroimidazo[4,5-d]pyrrolo[2,3-b]pyridin-2-yl)-N-((1s,3r,5R,7S)-3-hydroxyadamantan-1-yl)acetamide]
111 nM | 15.6 nM | 0.3 nM | N#CC[C@H]1CC[C@H](n2c(CC(=O)NCC3CCCCC3)nc3cnc4[nH]ccc4c32)CC1 [Ex. 69, 2-(1-((1r,4r)-4-(Cyanomethyl)cyclohexyl)-1,6-dihydroimidazo[4,5-d]pyrrolo[2,3-b]pyridin-2-yl)-N-(cyclohexylmethyl)acetamide]
273 nM | 17.3 nM | 0.6 nM | CC(C)(O)CNC(=O)c1nc2cnc3[nH]ccc3c2n1[C@H]1CC[C@H](CC#N)CC1 [Ex. 117, 1-((1r,4r)-4-(Cyanomethyl)cyclohexyl)-N-(2-hydroxy-2-methylpropyl)-1,6-dihydroimidazo[4,5-d]pyrrolo[2,3-b]pyridine-2-carboxamide]
65.9 nM | 19.1 nM | 0.9 nM | N#CC[C@H]1CC[C@H](n2c(C(=O)NCC3(O)CCCCCC3)nc3cnc4[nH]ccc4c32)CC1 [Ex. 136, 1-((1r,4r)-4-(Cyanomethyl)cyclohexyl)-N-((1-hydroxycycloheptyl)methyl)-1,6-dihydroimidazo[4,5-d]pyrrolo[2,3-b]pyridine-2-carboxamide]
175 nM | 19.4 nM | 1.1 nM | COCCNC(=O)c1nc2cnc3[nH]ccc3c2n1[C@H]1CC[C@H](CC#N)CC1 [Ex. 145, 1-((1r,4r)-4-(Cyanomethyl)cyclohexyl)-N-(2-methoxyethyl)-1,6-dihydroimidazo[4,5-d]pyrrolo[2,3-b]pyridine-2-carboxamide]
512 nM |  | 3.7 nM | N#CC[C@H]1CC[C@H](n2c(CO/N=C(\N)CN3CCCCC3)nc3cnc4[nH]ccc4c32)CC1 [Ex. 153, (Z*)—N′-((1-((1r,4r)-4-(Cyanomethyl)cyclohexyl)-1,6-dihydroimidazo[4,5-d]pyrrolo[2,3-b]pyridin-2-yl)methoxy)-2-(piperidin-1-yl)acetimidamide]
